Data on four compounds can be found in ChEMBL document CHEMBL1153945 (Bioorg Med Chem, 2009).

Structures are written as SMILES.

As a reminder, the Ki is a dissociation constant, usually derived from enzyme kinetics or from competition with a known ligand. Read a high Ki as lower affinity.

For assay [1], the target named is T1, Nitric oxide synthase 3 (Bos taurus, UniProt P29473).
T1 sequence (P29473 whole entry): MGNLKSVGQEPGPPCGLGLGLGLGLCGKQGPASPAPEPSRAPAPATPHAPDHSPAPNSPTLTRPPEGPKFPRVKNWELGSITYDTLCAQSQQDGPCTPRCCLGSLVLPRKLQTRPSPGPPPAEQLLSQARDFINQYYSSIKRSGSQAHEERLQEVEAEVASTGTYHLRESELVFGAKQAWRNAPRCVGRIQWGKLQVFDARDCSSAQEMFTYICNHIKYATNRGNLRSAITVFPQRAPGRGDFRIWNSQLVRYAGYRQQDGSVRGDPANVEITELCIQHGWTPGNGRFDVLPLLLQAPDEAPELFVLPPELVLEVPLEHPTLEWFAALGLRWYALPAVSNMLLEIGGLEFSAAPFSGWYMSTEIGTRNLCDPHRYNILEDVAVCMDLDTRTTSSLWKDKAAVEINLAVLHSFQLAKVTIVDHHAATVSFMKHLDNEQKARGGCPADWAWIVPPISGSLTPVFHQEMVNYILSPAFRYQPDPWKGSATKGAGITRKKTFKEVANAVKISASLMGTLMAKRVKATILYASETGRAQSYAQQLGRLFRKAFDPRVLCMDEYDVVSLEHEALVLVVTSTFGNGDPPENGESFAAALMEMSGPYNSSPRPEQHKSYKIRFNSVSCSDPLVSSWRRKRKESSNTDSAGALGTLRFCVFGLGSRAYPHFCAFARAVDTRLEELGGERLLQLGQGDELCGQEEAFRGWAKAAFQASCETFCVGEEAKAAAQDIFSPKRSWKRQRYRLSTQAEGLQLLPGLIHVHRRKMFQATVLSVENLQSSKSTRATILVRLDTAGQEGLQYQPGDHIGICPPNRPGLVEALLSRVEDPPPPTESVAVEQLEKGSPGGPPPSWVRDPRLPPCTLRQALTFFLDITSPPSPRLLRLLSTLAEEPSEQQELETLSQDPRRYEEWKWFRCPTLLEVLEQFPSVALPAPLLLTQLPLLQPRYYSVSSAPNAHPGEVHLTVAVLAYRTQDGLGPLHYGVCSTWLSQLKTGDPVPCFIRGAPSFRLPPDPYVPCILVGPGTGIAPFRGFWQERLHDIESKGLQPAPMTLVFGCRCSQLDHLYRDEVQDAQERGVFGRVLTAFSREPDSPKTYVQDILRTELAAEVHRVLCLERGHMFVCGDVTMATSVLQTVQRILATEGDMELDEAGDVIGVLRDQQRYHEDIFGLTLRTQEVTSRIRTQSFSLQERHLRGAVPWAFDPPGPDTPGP
Description: Inhibition of bovine recombinant eNOS expressed in Escherichia coli assessed as nitric oxide formation by hemoglobin capture assay

For assay [2], the target named is Nitric oxide synthase 1 (Rattus norvegicus, UniProt P29476).
Description: Inhibition of rat recombinant nNOS expressed in Escherichia coli assessed as nitric oxide formation by hemoglobin capture assay
In assay [3] the target is T2, Nitric oxide synthase, inducible (Mus musculus, UniProt P29477).
T2 sequence (P29477 whole entry): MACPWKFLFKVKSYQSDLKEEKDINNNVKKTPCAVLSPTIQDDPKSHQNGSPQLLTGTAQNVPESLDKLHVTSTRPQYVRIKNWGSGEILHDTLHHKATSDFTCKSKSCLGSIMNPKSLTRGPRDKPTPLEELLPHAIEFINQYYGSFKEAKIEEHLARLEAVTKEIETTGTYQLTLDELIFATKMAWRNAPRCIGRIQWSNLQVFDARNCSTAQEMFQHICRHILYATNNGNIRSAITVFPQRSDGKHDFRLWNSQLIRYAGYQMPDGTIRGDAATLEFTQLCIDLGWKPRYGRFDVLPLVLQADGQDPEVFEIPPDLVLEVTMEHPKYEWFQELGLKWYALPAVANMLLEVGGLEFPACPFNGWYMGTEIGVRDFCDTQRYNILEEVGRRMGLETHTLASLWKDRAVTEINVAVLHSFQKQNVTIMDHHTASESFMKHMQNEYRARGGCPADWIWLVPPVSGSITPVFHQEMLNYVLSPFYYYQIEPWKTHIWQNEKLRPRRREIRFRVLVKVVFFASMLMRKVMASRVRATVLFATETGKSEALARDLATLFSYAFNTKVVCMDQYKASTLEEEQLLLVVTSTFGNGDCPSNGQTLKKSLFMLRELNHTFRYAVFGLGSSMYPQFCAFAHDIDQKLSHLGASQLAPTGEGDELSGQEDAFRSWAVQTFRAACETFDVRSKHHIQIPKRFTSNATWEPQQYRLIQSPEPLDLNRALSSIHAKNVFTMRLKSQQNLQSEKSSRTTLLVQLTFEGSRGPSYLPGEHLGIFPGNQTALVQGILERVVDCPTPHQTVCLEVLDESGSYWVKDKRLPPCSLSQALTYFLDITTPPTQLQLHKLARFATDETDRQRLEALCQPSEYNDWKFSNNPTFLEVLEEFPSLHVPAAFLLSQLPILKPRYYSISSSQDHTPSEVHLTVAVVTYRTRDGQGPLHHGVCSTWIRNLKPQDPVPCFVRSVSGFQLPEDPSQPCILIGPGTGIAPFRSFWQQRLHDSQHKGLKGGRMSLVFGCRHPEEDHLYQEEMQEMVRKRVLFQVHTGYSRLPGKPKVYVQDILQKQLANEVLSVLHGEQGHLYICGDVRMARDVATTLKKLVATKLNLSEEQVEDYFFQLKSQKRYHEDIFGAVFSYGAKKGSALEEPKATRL
Description: Inhibition of mouse recombinant iNOS expressed in Escherichia coli assessed as nitric oxide formation by hemoglobin capture assay

Chain of Nitric oxide synthase 1 (P29476 whole entry): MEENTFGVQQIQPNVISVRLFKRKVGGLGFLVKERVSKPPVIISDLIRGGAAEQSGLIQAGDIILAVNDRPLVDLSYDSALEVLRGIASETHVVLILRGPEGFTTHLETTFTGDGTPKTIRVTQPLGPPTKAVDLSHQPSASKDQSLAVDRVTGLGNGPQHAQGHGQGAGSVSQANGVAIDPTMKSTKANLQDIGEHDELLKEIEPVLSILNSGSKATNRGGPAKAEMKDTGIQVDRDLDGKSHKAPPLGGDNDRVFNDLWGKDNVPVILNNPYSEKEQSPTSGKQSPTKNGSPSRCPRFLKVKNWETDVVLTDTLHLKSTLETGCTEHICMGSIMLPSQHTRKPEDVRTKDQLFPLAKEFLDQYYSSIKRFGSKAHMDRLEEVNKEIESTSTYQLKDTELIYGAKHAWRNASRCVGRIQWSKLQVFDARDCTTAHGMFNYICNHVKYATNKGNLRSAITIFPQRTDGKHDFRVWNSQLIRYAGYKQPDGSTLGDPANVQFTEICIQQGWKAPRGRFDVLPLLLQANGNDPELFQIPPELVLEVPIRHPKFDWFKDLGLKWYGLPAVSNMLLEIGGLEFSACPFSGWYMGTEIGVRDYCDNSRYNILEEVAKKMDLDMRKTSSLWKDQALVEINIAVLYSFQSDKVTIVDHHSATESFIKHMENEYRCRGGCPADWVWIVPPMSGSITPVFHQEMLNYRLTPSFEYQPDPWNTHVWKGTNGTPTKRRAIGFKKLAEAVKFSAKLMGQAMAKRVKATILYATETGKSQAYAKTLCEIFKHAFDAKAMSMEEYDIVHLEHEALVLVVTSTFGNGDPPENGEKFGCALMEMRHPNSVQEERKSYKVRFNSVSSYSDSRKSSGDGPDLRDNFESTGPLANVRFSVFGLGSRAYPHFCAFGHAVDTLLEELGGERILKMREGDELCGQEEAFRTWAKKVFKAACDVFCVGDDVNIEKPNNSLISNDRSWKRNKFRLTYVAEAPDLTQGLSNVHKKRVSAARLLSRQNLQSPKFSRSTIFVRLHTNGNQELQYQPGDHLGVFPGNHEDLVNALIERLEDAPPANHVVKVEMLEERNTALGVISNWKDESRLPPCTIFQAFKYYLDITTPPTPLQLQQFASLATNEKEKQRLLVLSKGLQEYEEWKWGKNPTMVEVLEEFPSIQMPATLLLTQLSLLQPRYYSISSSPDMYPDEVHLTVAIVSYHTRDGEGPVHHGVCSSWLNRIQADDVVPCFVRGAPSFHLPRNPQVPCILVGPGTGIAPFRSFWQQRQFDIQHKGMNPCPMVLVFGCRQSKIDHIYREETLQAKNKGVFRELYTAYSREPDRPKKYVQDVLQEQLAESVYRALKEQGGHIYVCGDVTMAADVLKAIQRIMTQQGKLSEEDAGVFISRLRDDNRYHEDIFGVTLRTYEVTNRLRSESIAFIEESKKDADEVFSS

`Cc1cc(N)nc(C[C@H]2CNC[C@H]2OCC(=O)NCCc2cccc(F)c2)c1` (racemic) yielded a Ki in assay [1] of 145 µM.

In turn, `Cc1cc(N)nc(C[C@H]2CNC[C@H]2NC(=O)CNCCc2cccc(F)c2)c1` (racemic) yielded a Ki in assay [2] of 0.053 µM.

Consider `Cc1cc(N)nc(C[C@H]2CNC[C@H]2OCCNC(=O)Cc2cccc(F)c2)c1` (racemic), for which the Ki in assay [1] is 107 µM; in assay [2], 5 µM.

Take `Cc1cc(N)nc(C[C@H]2CNC[C@H]2NCCOCCc2cccc(F)c2)c1` (racemic): the Ki in assay [3] turned out to be 4 µM; in assay [1], 33 µM; in assay [2], 0.4 µM.
